Test results as given in EP2266622A2, “Prodrugs containing novel bio-cleavable linkers” (Piramal Life Sciences Limited, priority 2004, dated 2006).
“And” between values parts separate entries of the source, which are not always exact repeats. Identical values can stand only once. Like-named read-outs stand apart in the source and are kept apart here.

Tests used:
MES-induced seizures [1] = assay: Test 1: Maximal Electroshock Test (MES), mice i.p.; type: in vivo; details: for MES: class symbol = dose
Method: (§1) Most of the prodrugs and mutual prodrugs of anticonvulsants described in this invention were evaluated at National Institute of Neurological Disorders and Stroke (NINDS), National Institute of Health (NIH), under their Antiepileptic Screening Program (ASP).
(§2) Test 1 is an initial screening for anticonvulsant activity in the Maximal Electroshock Test (MES) and Subcutaneous Metrazol Seizure Threshold Test (scMET) models combined with an initial assessment of toxicity (TOX) in mice via i.p. injection (see further explanation below). The data for each condition is presented as N/F, where N = number of animals protected from seizure and F = number of animals tested. For test of toxicity, N = number of animals displaying toxic effects and F = number of animals tested. Any deaths occurring during the test were recorded.
(§3) Maximal Electroshock Test (MES): The MES is a model for generalized tonic-clonic seizure and provides an indication of a compound's ability to prevent seizure spread when all neuronal circuits in the brain are maximally active. These seizures are highly reproducible and electro-physiologically consistent with human seizures. For all tests based on MES convulsions, 60 Hz of alternating current (50 mA in mice) is delivered for […] by corneal electrodes, which have been primed with an electrolyte solution containing an anesthetic agent (0.5% tetracaine hydrochloride). Mice were tested at various intervals following doses of 30, 100 and 300 mg/kg of test compound given by i.p. injection of a volume of 0.01 mL/g. Other doses can be used if indicated by previously known pharmacology. An animal is considered "protected" from MES-induced seizures upon abolition of the hind-limb tonic extensor component of the seizure.

clonic seizures [2] = assay: Test 1: Subcutaneous Metrazol Seizure Threshold Test (scMET), mice i.p.; type: in vivo; details: class symbol = dose
Method: as §1, §2
(§4) Subcutaneous Metrazol Seizure Threshold Test (scMET): Subcutaneous injection of the convulsant metrazol produces clonic seizures in laboratory animals. […] Animals were pretreated with various doses of the test compound given by i.p. injection. At the previously determined Time to Peak Effect (TPE) of the test compound, the dose of metrazol which will produce convulsions in 97% of animals (CD97: 85 mg/kg in mice) was injected into a loose fold of skin in the midline of the neck. The animals were placed in isolation cages to minimize stress and observed for the next 30 minutes for the presence or absence of a seizure. An episode of clonic spasms, approximately […], of the fore and/or hind limbs, jaws, or vibrissae is taken as the end point.

[3] = system: minimal muscular or neurological impairment; assay: Test 1: Acute toxicity, minimal motor impairment (rotorod), mice i.p.; type: in vivo; details: for Rotorod Toxicity: class symbol = dose
Method: as §1, §2

MES-induced seizures [4] = assay: Test 2: MES, rats p.o.; type: in vivo; details: 30 mg/kg
Excerpt: as §3
(§5) Rats received test compounds orally.

Neurological toxicity [5] = assay: Test 2: neurological toxicity, rats p.o.; type: in vivo; details: 30 mg/kg
Excerpt: as §5

MES-induced seizures [6] = assay: Test 3: MES quantification (time to peak effect, ED50), rats p.o.; type: in vivo; details: for Biological Response MES (number of animal protected/number of animal tested): time 6 h
clonic seizures [7] = assay: Test 3: scMET, rats p.o.; type: in vivo; details: 50 mg/kg
Method: as §4, §5
(§6) Table 1: Primary Screening (Test 1) data for Anticonvulsant Activity and Neurotoxicity in Mice (test compound administered i.p.)

Neurological toxicity [8] = assay: Test 3: neurological toxicity, rats p.o.; type: in vivo
Excerpt: as §5, §6

[9] = system: carrageenan-induced rat paw edema; assay: Carrageenan-induced rat paw edema model; type: in vivo; details: 75 mg/kg equivalent dose of aspirin, p.o.
Method: Male or female Sprague-Dawley rats weighing 150-200 g were used in the study. The rats were fed normal standard laboratory chow and maintained under standard conditions (room temperature of 22 ± 2 °C; 50 ± 10 % relative humidity; artificial light 06:00 to 18:00). All experimental procedures mentioned below are approved by institutional animal research committees and were performed in accordance with standard guidelines for the treatment of animals.
Anti-inflammatory activity of test compounds was measured in carrageenan-induced rat paw edema model (Takeuchi et al., J. Pharmacol. Exp. Ther. 1998, 286 (1), 115-121). […] We have not yet evaluated I-C1-NOPD5Bin this efficacy test.

mucosal damage = details: rats, oral, 3 hours after administration
[10] = In vitro plasma stability; details: rat plasma at 37 °C, 30 minutes incubation, HPLC analysis
Method: HPLC: Waters Allience analytical HPLC equipped with 2996 PDA detector and Empower software were used to analyze the samples.
HPLC Column: Waters X-Terra RP-18 analytical column, 150 X 3.9 mm, 5 .
HPLC Method: Flow: 1 mL/min, detecter set at 210 nm and at Maxplot (210-400 nm range). Solvent A: Acetonitrile; Solvent B: 0.1% TFA in water. Elution method: A linear gradient of 0-100% A.
The compounds were extracted back into acetonitrile with rigorous vortex.

[11] = Oral pharmacokinetics (plasma salicylate by HPLC); details: rats, 35 mg/kg equivalent dose

Structure (SMILES): CCOC(=O)CC1(CNC(=O)OCCSSCCOC(=O)Nc2nnc(-c3cccc(Cl)c3Cl)c(N)n2)CCCCC1 [I-AA-MPD12]
- activity in MES (Test 1, in words) (MES-induced seizures [1]): active in MES
- MES (number of animal protected/number of animal tested) (MES-induced seizures [1]; 100 mg/kg (++), 4.0 h): 3/3
- MES (number of animal protected/number of animal tested) (MES-induced seizures [1]; 100 mg/kg (++), 6 hours after dosing): 1/3
- MES (number of animal protected/number of animal tested) (MES-induced seizures [1]; 300 mg/kg (+), 4.0 h): 1/1
- MES (MES-induced seizures [1]; 0.5 h): - (- = no activity or no toxicity at 300 mg/kg)
- MES (MES-induced seizures [1]; at 6 hours after dosing (footnotes g, m)): ++ (++ = activity or toxicity at 100 mg/kg)
- ScMET (clonic seizures [2]; 0.5 h): - (- = no activity or no toxicity at 300 mg/kg)
- ScMET (clonic seizures [2]; 4.0 h): - (- = no activity or no toxicity at 300 mg/kg)
- toxicity (Test 1, in words) [3]: no or mild toxicity
- Rotorod Toxicity ([3]; 0.5 h): - (- = no activity or no toxicity at 300 mg/kg)
- Rotorod Toxicity ([3]; 4.0 h): - (- = no activity or no toxicity at 300 mg/kg)
- MES (number of animal protected/number of animal tested) (MES-induced seizures [4]; 0.50 h): 0/4
- MES (number of animal protected/number of animal tested) (MES-induced seizures [4]; 1.00 h): 0/4
- MES (number of animal protected/number of animal tested) (MES-induced seizures [4]; 2.00 h): 1/4
- MES (number of animal protected/number of animal tested) (MES-induced seizures [4]; 4.00 h): 3/4
- Toxicity (number of animals exhibiting toxicity/number of animals tested) (Neurological toxicity [5]; 0.50 h): 0/4
- Toxicity (number of animals exhibiting toxicity/number of animals tested) (Neurological toxicity [5]; 1.00 h): 0/4
- Toxicity (number of animals exhibiting toxicity/number of animals tested) (Neurological toxicity [5]; 2.00 h): 0/4
- Toxicity (number of animals exhibiting toxicity/number of animals tested) (Neurological toxicity [5]; 4.00 h): 0/4
- Time to Peak Effect MES (number of animal protected/number of animal tested) (MES-induced seizures [6]; 15 mg/kg, 6.0 h): 2/4
- Time to Peak Effect MES (number of animal protected/number of animal tested) (MES-induced seizures [6]; 15 mg/kg, 8.0 h): 1/4
- Time to Peak Effect MES (number of animal protected/number of animal tested) (MES-induced seizures [6]; 30 mg/kg, 0.5 h): 0/4
- Time to Peak Effect MES (number of animal protected/number of animal tested) (MES-induced seizures [6]; 30 mg/kg, 1.0 h): 0/4
- Time to Peak Effect MES (number of animal protected/number of animal tested) (MES-induced seizures [6]; 30 mg/kg, 2.0 h): 1/4
- Time to Peak Effect MES (number of animal protected/number of animal tested) (MES-induced seizures [6]; 30 mg/kg, 4.0 h): 3/4
- Time to Peak Effect MES (number of animal protected/number of animal tested) (MES-induced seizures [6]; 30 mg/kg, 6.0 h): 4/4
- Time to Peak Effect MES (number of animal protected/number of animal tested) (MES-induced seizures [6]; 30 mg/kg, 8.0 h): 4/4
- Time to Peak Effect MES (number of animal protected/number of animal tested) (MES-induced seizures [6]; 30 mg/kg, 24 h): 2 out of 4 and 2/4
- potency compared with parent drug lamotrigine (in words) (MES-induced seizures [6]; MES): less potent than lamotrigine
- ED50 (MES-induced seizures [6]; MES model, at the compound's time of peak effect (4, 6 or 8 h)): 17 mg/kg
- duration of protection (in words) (MES-induced seizures [6]; MES, 30 mg/kg, up to 24 h): significant extension in the duration of protection
- time to peak effect (MES-induced seizures [6]; MES, dose of 30 mg/kg): 6.0 to 8.0 h
- Biological Response MES (number of animal protected/number of animal tested) (MES-induced seizures [6]; dose 7.5 mg/kg): 0/8
- Biological Response MES (number of animal protected/number of animal tested) (MES-induced seizures [6]; dose 15 mg/kg): 5/8
- Biological Response MES (number of animal protected/number of animal tested) (MES-induced seizures [6]; dose 30 mg/kg): 7/8
- Biological Response MES (number of animal protected/number of animal tested) (MES-induced seizures [6]; dose 60 mg/kg): 7/8
- Time to Peak Effect ScMET (number of animal protected/number of animal tested) (clonic seizures [7]; 1.0 h): 1/4
- Time to Peak Effect ScMET (number of animal protected/number of animal tested) (clonic seizures [7]; 2.0 h): 0/4
- Time to Peak Effect ScMET (number of animal protected/number of animal tested) (clonic seizures [7]; 4.0 h): 0/4
- Time to Peak Effect ScMET (number of animal protected/number of animal tested) (clonic seizures [7]; 6.0 h): 1/4
- Time to Peak Effect ScMET (number of animal protected/number of animal tested) (clonic seizures [7]; 8.0 h): 2/4
- Time to Peak Effect ScMET (number of animal protected/number of animal tested) (clonic seizures [7]; 24 h): 0/4
- toxicity (in words) (Neurological toxicity [8]; 50 mg/kg): none of the animals exhibited toxicity
- Toxicity (number of animals exhibiting toxicity/number of animals tested) (Neurological toxicity [8]; 50 mg/kg, 1.0 h): 0/4 (5 0)
- Toxicity (number of animals exhibiting toxicity/number of animals tested) (Neurological toxicity [8]; 50 mg/kg, 2.0 h): 0/4 (50)
- Toxicity (number of animals exhibiting toxicity/number of animals tested) (Neurological toxicity [8]; 50 mg/kg, 4.0 h): 0/4 (50)
- Toxicity (number of animals exhibiting toxicity/number of animals tested) (Neurological toxicity [8]; 50 mg/kg, 6.0 h): 0/4 (50)
- Toxicity (number of animals exhibiting toxicity/number of animals tested) (Neurological toxicity [8]; 50 mg/kg, 8.0 h): 0/4 (50)
- Toxicity (number of animals exhibiting toxicity/number of animals tested) (Neurological toxicity [8]; 50 mg/kg, 24 h): 0/4 (50)
- toxicity (in words) (Neurological toxicity [8]; 100 mg/kg): one of eight animals exhibited mild ataxia
- Toxicity (number of animals exhibiting toxicity/number of animals tested) (Neurological toxicity [8]; 100 mg/kg, 8.0 h, mild ataxia only (footnote h)): 1/8 (100)^h

Structure (SMILES): CC(=O)Oc1ccccc1C(=O)OCCSSCCO[N+](=O)[O-] [I-C1-NOPD4]
- anti-inflammatory activity (in words) [9]: significant activity during the first two hours after drug administration
- ulcer development (in words) (mucosal damage; 100 mg/kg equivalent doses): none of the animals treated with the test compounds showed any signs of development of ulcers
- release of parent drug / conversion to salicylate [10]: converting to the expected metabolite (salicylate)

Structure (SMILES): CC(=O)Oc1ccccc1C(=O)NC(=O)OCCSSCCO[N+](=O)[O-] [I-C1-NOPD5A]
- anti-inflammatory activity (in words) [9]: negligible anti-inflammatory activity at any time point tested
- ulcer development (in words) (mucosal damage; 200 mg/kg equivalent doses): none of the animals treated with the test compounds showed any signs of development of ulcers
- release of parent drug / conversion to salicylate [10]: converting to the expected metabolite (salicylate)

Structure (SMILES): CC(=O)Oc1ccccc1C(=O)[N-]C(=O)OCCSSCCO[N+](=O)[O-].[Na+] [I-C1-NOPD5B]
- ulcer development (in words) (mucosal damage; 200 mg/kg equivalent doses): none of the animals treated with the test compounds showed any signs of development of ulcers
- salicylate release profile (in words) [11]: released in a sustained and controlled manner starting from 1 hour through 12 hours

Structure (SMILES): CC(=O)Oc1ccccc1C(=O)NCCSSCCO[N+](=O)[O-] [I-C1-NOPD6]
- ulcer development (in words) (mucosal damage; 100 mg/kg equivalent doses): none of the animals treated with the test compounds showed any signs of development of ulcers
- prodrug or salicylate found in plasma ([11]; any time point up to 24 hrs): neither the prodrug nor the salicylate was found in the plasma
